Experiment: Stability of cannabinoid compounds and Vitamin E components in Beverage 1 (AB White) by LCMSMS
Assay type: physicochemical
Conditions: for Stability of Plant-Derived Cannabinoid Compounds in AB White, 8° C.: AB White stored at 8° C.; for Stability of Plant-Derived Cannabinoid Compounds in AB White, 21-25° C.: AB White stored at 21-25° C.

SMILES: C=C(C)[C@@H]1CCC(C)=C[C@H]1c1c(O)cc(CCC)cc1O [CBDV, cannabidivarin]
- Stability of Plant-Derived Cannabinoid Compounds in AB White, 8° C. (29 days): 0.151 µg/mL
- Stability of Plant-Derived Cannabinoid Compounds in AB White, 8° C. (30 days): 0.148 µg/mL
- Stability of Plant-Derived Cannabinoid Compounds in AB White, 8° C. (60 days): 0.143 µg/mL
- Stability of Plant-Derived Cannabinoid Compounds in AB White, 8° C. (90 days): 0.146 µg/mL
- Stability of Plant-Derived Cannabinoid Compounds in AB White, 8° C. (120 days): 0.144 µg/mL
- Stability of Plant-Derived Cannabinoid Compounds in AB White, 8° C. (150 days): 0.150 µg/mL
- Stability of Plant-Derived Cannabinoid Compounds in AB White, 8° C. (180 days): 0.150 µg/mL
- Stability of Plant-Derived Cannabinoid Compounds in AB White, 8° C. (210 days): 0.147 µg/mL
- Stability of Plant-Derived Cannabinoid Compounds in AB White, 8° C. (240 days): 0.145 µg/mL
- Stability of Plant-Derived Cannabinoid Compounds in AB White, 8° C. (270 days): 0.143 µg/mL
- Stability of Plant-Derived Cannabinoid Compounds in AB White, 8° C. (300 days): 0.143 µg/mL
- Stability of Plant-Derived Cannabinoid Compounds in AB White, 8° C. (330 days): 0.146 µg/mL
- Stability of Plant-Derived Cannabinoid Compounds in AB White, 8° C. (360 days): 0.145 µg/mL
- Stability of Plant-Derived Cannabinoid Compounds in AB White, 8° C. (390 days): 0.143 µg/mL
- Stability of Plant-Derived Cannabinoid Compounds in AB White, 8° C. (420 days): 0.144 µg/mL
- Stability of Plant-Derived Cannabinoid Compounds in AB White, 8° C. (450 days): 0.145 µg/mL
- Stability of Plant-Derived Cannabinoid Compounds in AB White, 8° C. (480 days): 0.143 µg/mL
- Stability of Plant-Derived Cannabinoid Compounds in AB White, 8° C. (510 days): 0.138 µg/mL
- Stability of Plant-Derived Cannabinoid Compounds in AB White, 8° C. (540 days): 0.139 µg/mL
- Stability of Plant-Derived Cannabinoid Compounds in AB White, 8° C. (570 days): 0.138 µg/mL
- Stability of Plant-Derived Cannabinoid Compounds in AB White, 21-25° C. (0 days): 0.150 µg/mL
- Stability of Plant-Derived Cannabinoid Compounds in AB White, 21-25° C. (1 days): 0.149 µg/mL
- Stability of Plant-Derived Cannabinoid Compounds in AB White, 21-25° C. (2 days): 0.148 µg/mL
- Stability of Plant-Derived Cannabinoid Compounds in AB White, 21-25° C. (3 days): 0.149 µg/mL
- Stability of Plant-Derived Cannabinoid Compounds in AB White, 21-25° C. (5 days): 0.144 µg/mL
- Stability of Plant-Derived Cannabinoid Compounds in AB White, 21-25° C. (8 days): 0.145 µg/mL
- Stability of Plant-Derived Cannabinoid Compounds in AB White, 21-25° C. (9 days): 0.148 µg/mL
- Stability of Plant-Derived Cannabinoid Compounds in AB White, 21-25° C. (10 days): 0.147 µg/mL
- Stability of Plant-Derived Cannabinoid Compounds in AB White, 21-25° C. (11 days): 0.150 µg/mL
- Stability of Plant-Derived Cannabinoid Compounds in AB White, 21-25° C. (12 days): 0.152 µg/mL
- Stability of Plant-Derived Cannabinoid Compounds in AB White, 21-25° C. (15 days): 0.151 µg/mL
- Stability of Plant-Derived Cannabinoid Compounds in AB White, 21-25° C. (16 days): 0.145 µg/mL
- Stability of Plant-Derived Cannabinoid Compounds in AB White, 21-25° C. (17 days): 0.150 µg/mL
- Stability of Plant-Derived Cannabinoid Compounds in AB White, 21-25° C. (18 days): 0.151 µg/mL
- Stability of Plant-Derived Cannabinoid Compounds in AB White, 21-25° C. (19 days): 0.148 µg/mL
- Stability of Plant-Derived Cannabinoid Compounds in AB White, 21-25° C. (22 days): 0.148 µg/mL
- Stability of Plant-Derived Cannabinoid Compounds in AB White, 21-25° C. (23 days): 0.148 µg/mL
- Stability of Plant-Derived Cannabinoid Compounds in AB White, 21-25° C. (24 days): 0.145 µg/mL
- Stability of Plant-Derived Cannabinoid Compounds in AB White, 21-25° C. (25 days): 0.145 µg/mL
- Stability of Plant-Derived Cannabinoid Compounds in AB White, 21-25° C. (26 days): 0.149 µg/mL
- Stability of Plant-Derived Cannabinoid Compounds in AB White, 21-25° C. (29 days): 0.147 µg/mL
- Stability of Plant-Derived Cannabinoid Compounds in AB White, 21-25° C. (30 days): 0.151 µg/mL
- Stability of Plant-Derived Cannabinoid Compounds in AB White, 21-25° C. (60 days): 0.149 µg/mL
- Stability of Plant-Derived Cannabinoid Compounds in AB White, 21-25° C. (90 days): 0.143 µg/mL
- Stability of Plant-Derived Cannabinoid Compounds in AB White, 21-25° C. (120 days): 0.141 µg/mL
- Stability of Plant-Derived Cannabinoid Compounds in AB White, 21-25° C. (150 days): 0.146 µg/mL
- Stability of Plant-Derived Cannabinoid Compounds in AB White, 21-25° C. (180 days): 0.141 µg/mL
- Stability of Plant-Derived Cannabinoid Compounds in AB White, 21-25° C. (210 days): 0.142 µg/mL
- Stability of Plant-Derived Cannabinoid Compounds in AB White, 21-25° C. (240 days): 0.145 µg/mL
- Stability of Plant-Derived Cannabinoid Compounds in AB White, 21-25° C. (270 days): 0.148 µg/mL
- Stability of Plant-Derived Cannabinoid Compounds in AB White, 21-25° C. (300 days): 0.142 µg/mL
- Stability of Plant-Derived Cannabinoid Compounds in AB White, 21-25° C. (330 days): 0.144 µg/mL
- Stability of Plant-Derived Cannabinoid Compounds in AB White, 21-25° C. (360 days): 0.146 µg/mL
- Stability of Plant-Derived Cannabinoid Compounds in AB White, 21-25° C. (390 days): 0.146 µg/mL
- Stability of Plant-Derived Cannabinoid Compounds in AB White, 21-25° C. (420 days): 0.143 µg/mL
- Stability of Plant-Derived Cannabinoid Compounds in AB White, 21-25° C. (450 days): 0.144 µg/mL
- Stability of Plant-Derived Cannabinoid Compounds in AB White, 21-25° C. (480 days): 0.143 µg/mL
- Stability of Plant-Derived Cannabinoid Compounds in AB White, 21-25° C. (510 days): 0.139 µg/mL
- Stability of Plant-Derived Cannabinoid Compounds in AB White, 21-25° C. (540 days): 0.140 µg/mL
- Stability of Plant-Derived Cannabinoid Compounds in AB White, 21-25° C. (570 days): 0.138 µg/mL

From patent publication US20260130395A1, “Water Dispersible Botanical Compositions” (Aquila Black Limited, priority 2021, published 2026)
